Columns and labels:
SET-2 cells = experiment: Cell proliferation assay (CCK8); format: cell-based; settings: Ruxolitinib-resistant SET-2
Procedure: This example describes inhibition of in vitro cell proliferation with exemplary HDAC11 inhibitors. The effects of selective HDAC11 inhibitors on cell proliferation were measured in cell lines containing the MPN-associated mutations MPL W515L (Ba/F3 MPL W515L) and JAK2 V617F (Ba/F3 JAK2 V617F, HEL 92.1.7, SET-2). HEL 92.1.7 and SET-2 cells were purchased from the ATCC and DSMZ, respectively. Ba/F3 cells overexpressing either MPLW515L or JAK2V617F, which were cytokine independent, were generated by transforming Ba/F3 cells with retroviruses overexpressing either MPL W515L or JAK2V617F. For survival assays, cells were seeded in 96-well plates at the density of 0.1 million/ml with addition of indicated compounds and incubated at 37° C. for 48 h. CCK8 solution (Dojindo, Rockville, Md.) was added and absorbance at 450 nm was measured after 3 hours of incubation. Readings were normalized to dimethylsulfoxide (DMSO)-treated wells.

[1] = system: erythroid cells from MPN patients; experiment: Colony formation assay from MPN patient samples; format: cell-based, human; settings: MPN patient samples (ET; PV Ruxolitinib resistant), scored 12 to 14 days
Procedure: (§1) To determine the effects of selective HDAC11 inhibition on MPN patient samples, the effects of HDAC11 inhibitors were evaluated in a colony formation assay with erythroid or myeloid cells from MPN patients. Peripheral blood was obtained from MPN patients consented through the Moffitt Cancer Center Total Cancer Care protocol (MCC 14690). Blood was treated with HetaSep™ (STEMCELL Technologies, Inc.) to remove the majority of red blood cells. Peripheral blood mononuclear cells (PBMCs) were isolated by ficoll separation. PBMCs (1-4×105) were then plated in 1 mL of methylcellulose medium containing rhSCF, rhIL-3, and granulocyte-macrophage colony-stimulating factor (rhGM-CSF) (MethoCult™ #H4534; STEMCELL Technologies, Inc.). All drug treated samples contained 0.1% DMSO as the final concentration. Cells were incubated at 37° C. and 5% CO2 in a humidified incubator. Colonies were scored 12 to 14 days after plating.

[2] = system: myeloid cells from MPN patients; experiment: Colony formation assay from MPN patient samples; format: cell-based, human; settings: MPN patient samples (ET; PV Ruxolitinib resistant), scored 12 to 14 days
Procedure: as §1

H1650 SP cells = experiment: Tube formation assay with stem-like side population NSCLC cells; format: cell-based; settings: H1650 SP cells on Matrigel
Procedure: The angiogenic tubule assay was performed with the sorted side population cells to analyze vascular mimicry. The H1650 side population cells were sorted as mentioned above and they were further grown on Matrigel (BD Biosciences) to form angiogenic tubule-like structures. 100 μl of thawed Matrigel was layered on the wells of 96-well tissue culture plates and allowed to polymerize at 37° C. for 30 min. Sorted H1650 SP cells were layered (12000 cells/100 μl of Matrigel) on the polymerized matrigel and incubated overnight at 37° C. Tubule formation was assessed under bright field using EVOS FL microscope system and images were acquired with EVOS software (Life Technologies Inc., USA). For the treatment with HDAC11 inhibitors, appropriate concentrations of the compounds were added to the cells when they were seeded on Matrigel for the tubule formation assay.

A549 cells = experiment: Cell migration scratch assay; format: cell-based
Procedure: The effects of HDAC11 inhibition on cell migration were determined using a scratch assay. A549 cells (120,000-150,000 cells/2 ml/well) were grown in 6-well tissue culture plates (BD Biosciences). A scratch was made using a sterile 2 μl pipette tip in each well. The 10% FBS containing medium was added to the wells after a wash with DPBS. To assess the effect of the HDAC11 inhibitors on cell migration, the inhibitors were added in the medium at appropriate concentrations. The cells were further incubated at 37° C. The images were taken on Day 0 and after every 24 hours using EVOS FL microscope system and EVOS software (Life Technologies Inc) and the cell migration was compared to the Day 0 of treatment.

[3] = target: Full length human recombinant HDAC11 (Homo sapiens (Human), UniProt Q96DB2); experiment: Enzymatic HDAC11 assay, electrophoretic mobility shift; format: biochemical; settings: substrate FAM-RHKK(tri-fluor-Ac)-NH2, read-out: HDAC11 IC50 Range
Full length human recombinant HDAC11, sequence (Q96DB2 whole entry): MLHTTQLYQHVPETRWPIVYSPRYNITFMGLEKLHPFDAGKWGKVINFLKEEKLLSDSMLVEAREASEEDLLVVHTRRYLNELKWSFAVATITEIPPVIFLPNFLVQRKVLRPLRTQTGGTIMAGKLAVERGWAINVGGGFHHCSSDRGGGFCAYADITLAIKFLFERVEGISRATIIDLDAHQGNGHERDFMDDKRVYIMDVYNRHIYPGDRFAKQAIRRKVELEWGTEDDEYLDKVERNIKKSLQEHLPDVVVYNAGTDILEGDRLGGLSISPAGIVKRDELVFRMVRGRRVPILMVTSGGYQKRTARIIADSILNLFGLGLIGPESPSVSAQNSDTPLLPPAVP
Outline: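 Baculovirus-expressed enzyme (10 nM) with 2 μM FAM-RHKK(tri-fluor-Ac)-NH2 in 100 mM HEPES pH 7.5, 25 mM KCl, 0.1% BSA, 0.01% Triton X-100, 1% DMSO at 25 °C. Substrate and product separated by microfluidic electrophoresis; inhibition from product/(substrate+product) ratio. IC50 by 4-parameter fit over 12 concentrations.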

| IC50 [3] [nM] | Structure (SMILES) | growth of SET-2 cell line generated to be Ruxolitinib-resistant (SET-2 cells) | growth of colonies from erythroid cells [1] | growth of colonies from myeloid cells [2] | tubule formation (H1650 SP cells) | cell migration (A549 cells) |
| --- | --- | --- | --- | --- | --- | --- |
|  | O=C(NO)c1cccc(Nc2nc3cc(Cl)c(Cl)cc3o2)c1 [HDTK010, 3-((5,6-dichlorobenzo[d]oxazol-2-yl)amino)-N-hydroxybenzamide] | inhibited the growth | reduced the growth of colonies | reduced the growth of colonies |  |  |
| < 500 | O=C(NO)c1cccc2c1C[C@]1(CCN(Cc3ccc(Cl)c(C(F)(F)F)c3)C1=O)C2 [HDTK054, (S)-1′-(4-chloro-3-(trifluoromethyl)benzyl)-N-hydroxy-2′-oxo-1,3-dihydrospiro[indene-2,3′-pyrrolidine]-4-carboxamide] |  |  |  | inhibited tubule formation | impaired |

From patent US10508088B2, “Methods using HDAC11 inhibitors” (FORMA Therapeutics, Inc., priority 2016, dated 2019)
